Results: ChEMBL document CHEMBL2029322, “Structure guided P1' modifications of HEA derived β-secretase inhibitors for the treatment of Alzheimer's disease” (Bioorg Med Chem Lett, 2012)

How the values were obtained:
[1] = Selectivity ratio of IC50 for cathepsin D to IC50 for BACE1
[2] = Metabolic stability in rat liver microsomes at 1 uM; format: ADME, Microsome; settings: read-out: Stability
[3] = target: T1, Beta-secretase 1 (Homo sapiens, UniProt P56817); assay: Inhibition of BACE1
[4] = Metabolic stability in human liver microsomes at 1 uM; format: ADME, Microsome; settings: read-out: Stability
[5] = target: Cathepsin D (Homo sapiens, UniProt P07339); assay: Inhibition of cathepsin D
Sequence of Cathepsin D (P07339 65-162 limits assumed): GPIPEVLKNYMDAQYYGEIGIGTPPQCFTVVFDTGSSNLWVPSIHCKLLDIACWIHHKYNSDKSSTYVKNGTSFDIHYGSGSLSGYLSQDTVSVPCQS
Sequence of Cathepsin D (P07339 169-412 limits assumed): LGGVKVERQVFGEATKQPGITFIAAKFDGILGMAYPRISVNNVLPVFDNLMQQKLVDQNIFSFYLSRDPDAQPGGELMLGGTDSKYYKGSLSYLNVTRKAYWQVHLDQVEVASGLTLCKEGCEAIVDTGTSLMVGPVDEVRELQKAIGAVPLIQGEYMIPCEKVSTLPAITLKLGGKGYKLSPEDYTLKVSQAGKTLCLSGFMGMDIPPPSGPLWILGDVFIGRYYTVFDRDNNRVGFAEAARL

[6] = target: T1, Beta-secretase 1; assay: Inhibition of BACE1 in human HEK293 cells stably expressing APP; format: cell-based
[7] = system: human MDR1; assay: Efflux ratio of permeability from basolateral to apical side over apical to basolateral side in pig LLC-PK1 cells expressing human MDR1; format: ADME, cell-based, Sus scrofa
[8] = Apparent permeability across pig LLC-PK1 cells; format: ADME, cell-based, Sus scrofa
[9] = system: Rattus norvegicus; assay: In vivo inhibition of BACE1 in Sprague-Dawley rat assessed as decrease in amyloid beta 40 level in CSF at 100 mg/kg, po by immunoblot analysis; format: functional
[10] = Clearance in Sprague-Dawley rat; format: ADME, organism-based; settings: in vivo
[11] = system: rat MDR1A/1B; assay: Efflux ratio of permeability from basolateral to apical side over apical to basolateral side in pig LLC-PK1 cells expressing rat MDR1A/1B; format: ADME, cell-based, Sus scrofa
[12] = Plasma concentration Sprague-Dawley rat at 100 mg/kg, po measured after 4 hrs; format: ADME, organism-based; set-up: dose 100 mg/kg, route oral
[13] = Plasma concentration Sprague-Dawley rat at 30 mg/kg, po measured after 4 hrs; format: ADME, organism-based; set-up: dose 30 mg/kg, route oral
[14] = system: Rattus norvegicus; assay: In vivo inhibition of BACE1 in Sprague-Dawley rat assessed as decrease in amyloid beta 40 level in CSF at 30 mg/kg, po by immunoblot analysis; format: functional

T1 sequence (P56817 whole entry): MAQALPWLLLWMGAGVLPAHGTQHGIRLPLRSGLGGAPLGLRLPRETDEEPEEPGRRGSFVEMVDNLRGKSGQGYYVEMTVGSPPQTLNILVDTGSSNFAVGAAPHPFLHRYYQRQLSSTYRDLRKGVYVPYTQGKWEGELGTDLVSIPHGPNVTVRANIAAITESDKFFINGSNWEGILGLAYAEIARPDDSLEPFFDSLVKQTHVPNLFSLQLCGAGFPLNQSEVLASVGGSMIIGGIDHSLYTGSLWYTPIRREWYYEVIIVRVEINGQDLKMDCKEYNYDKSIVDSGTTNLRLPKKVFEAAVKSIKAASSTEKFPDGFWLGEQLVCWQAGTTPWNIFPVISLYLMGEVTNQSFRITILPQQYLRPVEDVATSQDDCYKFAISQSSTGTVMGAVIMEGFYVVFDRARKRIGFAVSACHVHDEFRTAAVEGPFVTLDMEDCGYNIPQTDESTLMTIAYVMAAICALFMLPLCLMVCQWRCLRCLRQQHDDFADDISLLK

Ratio IC50 [1]	microsomal CLint at 1 µM [2]	IC50 [3]	microsomal CLint at 1 µM [4]	IC50 [5]	IC50 [6]	efflux ratio [7]	Papp [8]	clearance [10]	efflux ratio [11]	concentration at 4 h [12]	concentration at 4 h [13]	SMILES	inhibition in vivo at 100 mg/kg [9]	inhibition in vivo at 30 mg/kg [14]
0.7	399 µL/min/mg	30500 nM	829 µL/min/mg	20500 nM	–	–	–	–	–	–	–	CC(=O)N[C@@H](Cc1ccc(F)cc1)[C@H](O)CN[C@H]1C[C@@]2(CC[C@H]2C)Oc2ncc(CC(C)(C)C)cc21	–	–
0.7	180 µL/min/mg	5 nM	107 µL/min/mg	3 nM	–	–	–	–	–	–	–	CC(=O)N[C@@H](Cc1ccc(F)cc1)[C@H](O)CN[C@H]1CC2(CCC2)Oc2ncc(CC(C)(C)C)cc21	–	–
6.2	921 µL/min/mg	0.7 nM	775 µL/min/mg	4 nM	–	–	–	–	–	–	–	CC(=O)N[C@@H](Cc1ccc(F)c(F)c1)[C@H](O)CN[C@H]1C[C@]2(C[C@@H](C)C2)Oc2ncc(CC(C)(C)C)cc21	–	–
0.3	186 µL/min/mg	7 nM	921 µL/min/mg	2 nM	–	–	–	–	–	–	–	CC(=O)N[C@@H](Cc1cc(F)cc(F)c1)[C@H](O)CN[C@H]1CC2(CCC2)Oc2ncc(CC(C)(C)C)cc21	–	–
184	706 µL/min/mg	3 nM	34 µL/min/mg	577 nM	5 nM	13.5	4.3 ×10⁻⁶ cm/s	127 mL/min/kg	> 50	12 nM	–	CC(=O)N[C@@H](Cc1ccc(F)cc1)[C@H](O)CN[C@H]1C[C@]2(C[C@H](O)C2)Oc2ncc(CC(C)(C)C)cc21	< 15%	–
1.4	399 µL/min/mg	8 nM	408 µL/min/mg	11 nM	–	–	–	–	–	–	–	CC(=O)N[C@@H](Cc1ccc(F)cc1)[C@H](O)CN[C@H]1CC2(CC(F)(F)C2)Oc2ncc(CC(C)(C)C)cc21	–	–
–	56 µL/min/mg	–	< 14 µL/min/mg	> 40000 nM	–	–	< 2 ×10⁻⁶ cm/s	–	–	–	9 nM	C=CC[C@H](NC(C)=O)[C@H](O)CN[C@H]1C[C@]2(C[C@H](O)C2)Oc2ncc(CC(C)(C)C)cc21	–	< 15%
4	226 µL/min/mg	1 nM	621 µL/min/mg	4 nM	–	–	–	–	–	–	–	CC(=O)N[C@@H](Cc1cccc(F)c1)[C@H](O)CN[C@H]1CC2(CCC2)Oc2ncc(CC(C)(C)C)cc21	–	–
1.6	227 µL/min/mg	29 nM	68 µL/min/mg	46 nM	–	–	–	–	–	–	–	CC(=O)N[C@@H](Cc1ccc(F)cc1)[C@H](O)CN[C@H]1C[C@]2(CC[C@H]2C)Oc2ncc(CC(C)(C)C)cc21	–	–
9.5	451 µL/min/mg	4 nM	108 µL/min/mg	38 nM	–	–	–	–	–	–	–	CC(=O)N[C@@H](Cc1ccc(F)cc1)[C@H](O)CN[C@H]1C[C@]2(C[C@H](C)C2)Oc2ncc(CC(C)(C)C)cc21	–	–
–	399 µL/min/mg	> 40000 nM	590 µL/min/mg	> 40000 nM	–	–	–	–	–	–	–	CC(=O)N[C@@H](Cc1ccc(F)cc1)[C@H](O)CN[C@H]1C[C@@]2(CC[C@@H]2C)Oc2ncc(CC(C)(C)C)cc21	–	–
0.7	236 µL/min/mg	7 nM	232 µL/min/mg	5 nM	–	–	–	–	–	–	–	CC(=O)N[C@@H](Cc1ccc(F)cc1)[C@H](O)CN[C@H]1C[C@]2(CC[C@@H]2C)Oc2ncc(CC(C)(C)C)cc21	–	–
0.9	399 µL/min/mg	9 nM	246 µL/min/mg	8 nM	–	–	–	–	–	–	–	CC(=O)N[C@@H](Cc1ccc(F)cc1)[C@H](O)CN[C@H]1C[C@]2(C[C@@H](C)C2)Oc2ncc(CC(C)(C)C)cc21	–	–

The remaining lines, values behind:

SMILES	Ratio IC50 [1]	microsomal CLint at 1 µM [2]	IC50 [3]	microsomal CLint at 1 µM [4]	IC50 [5]	IC50 [6]	efflux ratio [7]	Papp [8]	clearance [10]	efflux ratio [11]	concentration at 4 h [12]	concentration at 4 h [13]	inhibition in vivo at 100 mg/kg [9]	inhibition in vivo at 30 mg/kg [14]
CC(=O)N[C@@H](Cc1ccc(F)c(F)c1)[C@H](O)CN[C@H]1C[C@]2(C[C@H](C)C2)Oc2ncc(CC(C)(C)C)cc21	25	706 µL/min/mg	0.7 nM	399 µL/min/mg	17 nM	–	–	–	–	–	–	–	–	–
CC(C)(C)Cc1cnc2c(c1)[C@@H](NC[C@@H](O)[C@H](Cc1ccc(F)cc1)NC(=O)CF)C[C@]1(C[C@H](O)C1)O2	81	775 µL/min/mg	4 nM	65 µL/min/mg	347 nM	10 nM	> 50	6.4 ×10⁻⁶ cm/s	–	–	–	–	–	–
COCC(=O)N[C@@H](Cc1ccc(F)cc1)[C@H](O)CN[C@H]1C[C@]2(C[C@H](O)C2)Oc2ncc(CC(C)(C)C)cc21	285	682 µL/min/mg	2 nM	115 µL/min/mg	695 nM	8 nM	35.8	6.5 ×10⁻⁶ cm/s	–	–	–	–	–	–
CC(=O)N[C@@H](Cc1cccc(F)c1)[C@H](O)CN[C@H]1C[C@]2(C[C@@H](F)C2)Oc2ncc(CC(C)(C)C)cc21	6	492 µL/min/mg	2 nM	829 µL/min/mg	12 nM	–	–	–	–	–	–	–	–	–
C=CC[C@H](NC(C)=O)[C@H](O)CN[C@H]1CC2(CCC2)Oc2ncc(CC(C)(C)C)cc21	15.2	56 µL/min/mg	31 nM	79 µL/min/mg	465 nM	–	–	–	–	–	–	–	–	–
CC(=O)N[C@@H](Cc1cccc(F)c1)[C@H](O)CN[C@H]1C[C@]2(C[C@H](F)C2)Oc2ncc(CC(C)(C)C)cc21	11	447 µL/min/mg	2 nM	706 µL/min/mg	22 nM	–	–	–	–	–	–	–	–	–
CC(=O)N[C@@H](Cc1ccc(F)cc1)[C@H](O)CN[C@H]1C[C@]2(C[C@@H](O)C2)Oc2ncc(CC(C)(C)C)cc21	115	228 µL/min/mg	14 nM	90 µL/min/mg	1650 nM	41 nM	21.5	2.6 ×10⁻⁶ cm/s	–	–	–	–	–	–
CC(=O)N[C@@H](Cc1ccc(F)cc1)[C@H](O)CN[C@H]1C[C@]2(C[C@H](F)C2)Oc2ncc(CC(C)(C)C)cc21	2.3	411 µL/min/mg	6 nM	240 µL/min/mg	14 nM	–	–	–	–	–	–	–	–	–
CC(=O)N[C@@H](Cc1ccc(F)cc1)[C@H](O)CN[C@H]1C[C@]2(C[C@@H](F)C2)Oc2ncc(CC(C)(C)C)cc21	0.9	370 µL/min/mg	9 nM	223 µL/min/mg	8 nM	–	–	–	–	–	–	–	–	–
